Assay results taken from US20100186098A1, “TRANSGENIC ANIMAL MODELS OF PARKINSON'S DISEASE” (CORNELL UNIVERSITY, priority 2007, published 2010).

Key:
Assay type in all cases: in vivo, mouse
Conditions in all cases: intraperitoneal; L-dopa 2 and 20 mg/kg with benserazide, tested 40 minutes after injection; apomorphine 10 mg/kg, tested 5 minutes after
hR1441G LRRK2 mice [1] = assay: Home cage activity test, pharmacological rescue
Method: (§1) hR1441G LRRK2 mice and WT littermates were kept in a 12:12 hour light/dark cycle in a temperature and humidity controlled room. All behavioral tests were conducted in the dark phase after two hours of the light/dark switch. In home cage activity test, hR1441G LRRK2 mice and wild type littermates were video taped in home cage for spontaneous ambulatory activity without any disturbance. In cylinder test, hR1441G LRRK2 mice were individually transferred into a 12 cm diameter cylinder and video taped with a reflective mirror for 5 minutes. Vertical rearing and horizontal limb steps were counted. In open field test, mice were transferred into a 45 cm×45 cm box for 10 minutes, video taped and analyzed by Ethovision, 3.0 from Noldus. The locomotor activity was measured by total distance and the number of tiles that the mice traveled.
(§2) To address whether the loss of movement in hR1441G LRRK2 mice originated from a defect in the dopaminergic system, a pharmacological approach was applied. hR1441G LRRK2 mice and wild type littermates were injected with saline control or methyl L-dopa hydrochloride (Sigma, St. Louis, USA) in 0.9% NaCl with benserazide 6.5 mg/kg (Sigma). Two dosages of methyl L-dopa hydrochloride (2 mg/kg and 20 mg/kg) were tested. 0.3 ml of intraperitoneal injections was administered to each animal. Behavioral testing were performed 40 minutes after the injections. […]

hR1441G LRRK2 mice [2] = assay: Open field test, pharmacological rescue
Method: as §1, §2

[3] = tested on: hR1441G LRRK2 BAC mice (TG); assay: Cylinder test (rearing), pharmacological rescue
Method: FIGS. 9A-9B illustrate robust locomotor deficit in hR1441G LRRK2 BAC mice was rescued by L-Dopa and apomorphine. Wild type littermates (WT) and hR1441G LRRK2 BAC mice (TG) were tested for 3 min in the cylinder test. Rearing was counted as an indication of motor activity. (9A) An age dependent decline in rearing was detected. At 3, 6 and 10 months of age, WT mice reared an average 50.4±SE2.13, 51.4±SE1.28, 50.2.4±SE2.13 times, while TG mice reared 49.4±SE2.13, […] and zero times respectively. At 6 and 10 months of age, TG mice had significant reductions (P<0.005, P<0.001 respectively). (9B) This robust deficit in TG mice was rescued by 20 mg/kg L-Dopa with […] Benseramide. In saline injection controls, WT and TG mice reared 50.4±SE2.48 and 0.8±SE0.37 in 3 minutes, whereas in L-dopa injection, WT and TG mice reared 47.2±SE1.65 and 28.4±SE1.43.
hR1441G LRRK2 mice and WT littermates were kept in a 12:12 hour light/dark cycle in a temperature and humidity controlled room. All behavioral tests were conducted in the dark phase after two hours of the light/dark switch. […] Vertical rearing and horizontal limb steps were counted. In open field test, mice were transferred into a 45 cm×45 cm box for 10 minutes, video taped and analyzed by Ethovision, 3.0 from Noldus. The locomotor activity was measured by total distance and the number of tiles that the mice traveled. […]

CN1CCc2cccc3c2[C@H]1Cc1ccc(O)c(O)c1-3 [apomorphine]
significantly rescued: Rescue from motor deficits in home cage activities (hR1441G LRRK2 mice [1]) | Rescue from motor deficits in the open field test (hR1441G LRRK2 mice [2]) | Rescue from motor deficits in the cylinder test [3]
